Data from US20140350014A1, “COMPOUNDS FOR INHIBITING THE INTERACTION OF BCL2 WITH BINDING PARTNERS” (NOVARTIS AG, priority 2011, published 2014).

How the values were obtained:
[1] = target: BCL-2 binding to BAD peptide (Homo sapiens, UniProt P10415); assay: BCL2 SPR solution inhibition assay, BAD peptide surface (Biacore A100); details: read-out: BCL2_SPR IC50 BAD
Source text: (§1) 33The present method includes utility of a Surface plasmon resonance (SPR)-based biosensor (Bia34core™′ GE Healthcare, Uppsala, Sweden) to characterize BCL-2 inhibitors. 35
(§2) 36Biacore™ utilizes the phenomenon of surface plasmon resonance (SPR) to detect and measure 37binding interactions. In a typical Biacore experiment, one of the interacting molecules (ligand) is i38mmobilized on a flexible dextran matrix while the interacting partner (analyte) is allowed to fl39ow across that surface. A binding interaction results in an increase in mass on the sensor surface 40and a corresponding direct change in the refractive index of the medium in the vicinity of the 41sensor surface. Changes in refractive index or signal are recorded in resonance units (R.U.) Signal 42changes due to association and dissociation of complexes are monitored in a non-invasive manne43r, continuously and in real-time, the results of which are reported in the form of a sensorgram.44
(§3) The SPR assay is con45figured to examine solution inhibition of BCL-2 binding to peptide derivatized sensor surfa46ces to generate IC50 values as a measure of inhibitor potency.
(§4) Biacore™ A100 (GE Healthcare, Uppsala, Sweden) was used to conduct all experiments reported herein. Sensor surface preparation and all interaction analyses experiments were performed at 25° C. Reagents were purchased from GE Healthcare. Running buffer containing 10 mM Hepes, pH7.4, 150 mM sodium chloride, 1.25 mM Dithiothreitol, 3% Dimethyl sulfoxide and 0.05% polysorbate 20 were utilized throughout all analyses.
(§5) Biotinylated BAK, BAD and NOXA peptides were diluted to 10 nM in running buffer and captured onto a sensor surface pre-derivatized with streptavidin (sensor chip SA) to peptide surface densities in the range 50-100 R.U. Peptide captured surfaces were blocked with 500 μM PEO2-Biotin.
(§6) Interaction analyses were performed by first equilibrating each sample within a 6 point three fold compound dilution series in the range 16 μM to […] with 56 nM BCL-2 for one hour during instrument start-up procedures. Protein compound mixtures were then injected over each peptide surface in parallel for 60 seconds at a flow-rate of 30 μL/min. 56 nM BCL-2 control samples were also prepared and run at regular intervals during the assay. Surface regeneration was performed at the end of each analysis cycle by two 30 second injections of 10 mM Glycine, pH 2.5, 1M Sodium Chloride, 0.05% polysorbate 20. Samples and control compound samples were run in duplicate and controls are also run at regular intervals during the assay to monitor surface and assay performance.
(§7) Data analyses are carried out using Biacore™ A100 evaluation software v1.1 to validate assay quality. Binding level report points were used relative to BCL-2 control samples to calculate % inhibition values for each compound protein mixture. […] The range of data shown in table 1 represents the high and low IC50 values obtained from multiple experiments.

[2] = target: BCL-2 binding to BAK peptide (Homo sapiens, UniProt P10415); assay: BCL2 SPR solution inhibition assay, BAK peptide surface (Biacore A100); details: read-out: BCL2_SPR IC50 BAK
Source text: as §1, §2, §3, §4, §5, §6, §7

Sequence of BCL-2 binding to BAK peptide (P10415 whole entry): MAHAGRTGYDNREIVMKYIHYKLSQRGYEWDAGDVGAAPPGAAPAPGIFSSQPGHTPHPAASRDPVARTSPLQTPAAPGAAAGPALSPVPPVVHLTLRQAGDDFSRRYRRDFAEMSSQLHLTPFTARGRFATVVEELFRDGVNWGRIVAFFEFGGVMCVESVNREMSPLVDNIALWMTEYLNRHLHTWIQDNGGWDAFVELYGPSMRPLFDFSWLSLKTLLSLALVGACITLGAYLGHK
Sequence of BCL-2 binding to BAD peptide (P10415 whole entry): as above

Row | SMILES | IC50 [1] [nM] | IC50 [2] [nM]
1 | CCCCN(CCCC)C(=O)c1cc(C)n(-c2ccc(-c3c(-c4ccccc4)noc3C)cc2C(=O)N2Cc3ccccc3C[C@H]2CO)n1 [Example 69] | 5450 to 5510 | 4420 to 4570
2 | CCCCN(CCCC)C(=O)c1cc(C)n(-c2ccc(-c3ccc(S(C)(=O)=O)cc3)cc2C(=O)N2Cc3ccccc3C[C@H]2CO)n1 [Example 60] | 608 to 612 | 432 to 458
3 | CCCCN(CCCC)C(=O)c1cc(C)n(-c2ccc(N3CCOCC3)cc2C(=O)N2Cc3ccccc3C[C@H]2CO)n1 [Example 1, (S)—N,N-dibutyl-1-(2-(3-(hydroxymethyl)-1,2,3,4-tetrahydroisoquinoline-2-carbonyl)-4-morpholinophenyl)-5-methyl-1H-pyrazole-3-carboxamide] | 1400 to 1520 | 725 to 860
4 | CCCCN(CCCC)C(=O)c1cc(C)n(-c2ccc(-c3c(C)noc3C)cc2C(=O)N2Cc3ccccc3C[C@H]2CO)n1 [Example 41] | 1930 to 2030 | 1800 to 2550
5 | CCCCN(CCCC)C(=O)c1cc(C)n(-c2ccc(-c3ccc(F)c(C#N)c3)cc2C(=O)N2Cc3ccccc3C[C@H]2CO)n1 [Example 32] | 410 to 465 | 359 to 375
6 | CCCCN(CCCC)C(=O)c1cc(C)n(-c2ccc(-c3ccc(Cl)cc3)cc2C(=O)N2Cc3ccccc3C[C@H]2CO)n1 [Example 63] | 2070 to 2140 | 1710 to 1850
7 | CCCCN(CCCC)C(=O)c1cc(C)n(-c2ccc(-c3cccc(-c4nnc(C)o4)c3)cc2C(=O)N2Cc3ccccc3C[C@H]2CO)n1 [Example 62] | 543 to 551 | 763 to 799
8 | CCCCN(CCCC)C(=O)c1cc(C)n(-c2ccc(-c3ccc4cc(OC)ccc4c3)cc2C(=O)N2Cc3ccccc3C[C@H]2CO)n1 [Example 57] | 605 to 653 | 556 to 689
9 | CCCCN(CCCC)C(=O)c1cc(C)n(-c2ccc(-c3ccc(Cl)c(C(=O)NC)c3)cc2C(=O)N2Cc3ccccc3C[C@H]2CO)n1 [Example 35] | 515 to 547 | 357 to 366
10 | CCCCN(CCCC)C(=O)c1cc(C)n(-c2ccc(-c3ccc(OC)c(OC)c3)cc2C(=O)N2Cc3ccccc3C[C@H]2CO)n1 [Example 52] | 567 to 629 | 471 to 479
11 | CCCCN(CCCC)C(=O)c1cc(C)n(-c2ccc(-c3cc(F)cc(OC(C)C)c3)cc2C(=O)N2Cc3ccccc3C[C@H]2CO)n1 [Example 59] | 635 to 652 | 540 to 583
12 | CCCCN(CCCC)C(=O)c1cc(C)n(-c2ccc(-c3cccc(C)c3)cc2C(=O)N2Cc3ccccc3C[C@H]2CO)n1 [Example 47] | 619 to 631 | 503 to 589
13 | CCCCN(CCCC)C(=O)c1cc(C)n(-c2ccc(N3CCN(C(=O)OC(C)(C)C)CC3=O)cc2C(=O)N2Cc3ccccc3C[C@H]2CO)n1 [Example 16] | 2020 to 2210 | 1340 to 1450
14 | CCCCN(CCCC)C(=O)c1cc(C)n(-c2ccc(-c3ccc(OC)c(Cl)c3)cc2C(=O)N2Cc3ccccc3C[C@H]2CO)n1 [Example 30] | 651 to 676 | 510 to 591
15 | CCCCN(CCCC)C(=O)c1cc(C)n(-c2ccc(-c3c(OC)cccc3OC)cc2C(=O)N2Cc3ccccc3C[C@H]2CO)n1 [Example 65] | 10600 to 12300 | 6340 to 6900
16 | CCCCN(CCCC)C(=O)c1nn(-c2ccc(-c3cc[nH]n3)cc2C(=O)N2Cc3ccccc3C[C@H]2CO)c(C)c1Cl [Example 7] | 739 to 770 | 609 to 613
17 | CCCCN(CCCC)C(=O)c1cc(C)n(-c2ccc(-c3cc(C)cc(C)c3)cc2C(=O)N2Cc3ccccc3C[C@H]2CO)n1 [Example 43] | 593 to 614 | 886 to 905
18 | CCCCN(CCCC)C(=O)c1cc(C)n(-c2ccc(N3CCCCC3)cc2C(=O)N2Cc3ccccc3C[C@H]2CO)n1 [Example 18] | 2360 to 2740 | 1650 to 1930
19 | CCCCN(CCCC)C(=O)c1cc(C)n(-c2ccc(-c3ccc(OC)c4ccccc34)cc2C(=O)N2Cc3ccccc3C[C@H]2CO)n1 [Example 46] | > 16000 | > 16000
20 | CCCCN(CCCC)C(=O)c1cc(C)n(-c2ccc(-c3ccc(OC(C)C)cc3)cc2C(=O)N2Cc3ccccc3C[C@H]2CO)n1 [Example 55] | 722 to 764 | 564 to 617
